Experimental data taken from BindingDB's records for doi:10.1016/0006-2952(92)90616-q (National Institutes of Diabetes and Digestive and Kidney …, 1992).

Legend:
[1] = biological target: Adenosine receptor A2a (Rattus norvegicus, UniProt P30543)
[2] = biological target: T1, Adenosine receptor A1 (Rattus norvegicus, UniProt P25099)
T1 sequence (P25099 whole entry): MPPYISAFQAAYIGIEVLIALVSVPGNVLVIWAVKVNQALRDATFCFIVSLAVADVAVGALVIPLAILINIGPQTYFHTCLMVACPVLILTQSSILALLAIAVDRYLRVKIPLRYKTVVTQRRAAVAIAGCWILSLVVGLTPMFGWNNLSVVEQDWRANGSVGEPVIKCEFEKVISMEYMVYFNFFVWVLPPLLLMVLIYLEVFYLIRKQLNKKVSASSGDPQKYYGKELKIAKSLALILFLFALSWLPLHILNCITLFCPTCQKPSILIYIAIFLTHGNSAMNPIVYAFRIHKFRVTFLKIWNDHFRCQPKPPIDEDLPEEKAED

Adenosine receptor A2a, sequence (P30543 whole entry): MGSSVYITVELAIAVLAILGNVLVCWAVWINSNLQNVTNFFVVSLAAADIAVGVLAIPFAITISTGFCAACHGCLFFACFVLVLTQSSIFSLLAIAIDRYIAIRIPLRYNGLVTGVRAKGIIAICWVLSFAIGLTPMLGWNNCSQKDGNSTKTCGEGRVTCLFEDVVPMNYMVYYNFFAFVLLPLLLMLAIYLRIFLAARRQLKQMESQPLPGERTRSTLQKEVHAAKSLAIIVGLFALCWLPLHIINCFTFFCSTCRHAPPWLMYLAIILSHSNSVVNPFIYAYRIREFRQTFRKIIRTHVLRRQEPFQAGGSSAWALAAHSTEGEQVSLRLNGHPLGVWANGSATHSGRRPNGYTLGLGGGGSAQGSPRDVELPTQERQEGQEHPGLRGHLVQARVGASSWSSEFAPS

| SMILES | Ki [1] | Ki [2] |
| --- | --- | --- |
| Nc1nc(F)nc2c1ncn2[C@@H]1O[C@H](CO)[C@@H](O)[C@H]1O [2-FluoroAdo] | 0.028 µM | 0.0059 µM |
| CSC[C@H]1O[C@@H](n2cnc3c(NC4CCCC4)ncnc32)[C@H](O)[C@@H]1O [5'-Methylthio Adenosine] | 1.18 µM | 0.243 µM |
| CCNC(=O)C1OC(n2cnc3c(NC4CCCCC4)ncnc32)C(O)C1O (stereo not drawn) [N6-CyclohexylNECA] | 0.17 µM | 0.00043 µM |
| CSC[C@H]1O[C@@H](n2cnc3c(NC4CCCC4)nc(F)nc32)[C@H](O)[C@@H]1O [2-Fluoro-5'-Methylthio Adenosine] | 0.95 µM | 0.084 µM |
| O[C@@H]1[C@H](O)[C@@H](Cl)O[C@H]1n1cnc2c(NC3CCCC3)ncnc21 [N6-Cyclopentyl-5'chloro Adenosine] | 1.36 µM | 0.00063 µM |
| OC[C@H]1O[C@@H](n2cnc3c(NC4CCCC4)ncnc32)[C@H](O)[C@@H]1O | 0.51 µM | – |
| Nc1ncnc2c1ncn2[C@@H]1O[C@H](Cl)[C@@H](O)[C@H]1O [5'-Chloro Adenosine] | 0.14 µM | 0.02 µM |
